Like-named read-outs stand apart in the source and are kept apart here. Where no end group is shown, it is not given here.
Legend:
[1] = set-up: method as in PMID 20454616, PMID 21804199, PMID 23355413, PMID 28341636; conditions: cited from earlier work
PAF receptor [2] = biological target: PAF receptor (Oryctolagus cuniculus, UniProt G1TEI7); assay: [3H]‐PAF receptor binding to rabbit platelet membranes; conditions: read-out: [3H]‐PAF receptor binding inhibition constant (Ki, nM; Mean ± SEM)
Text: (§1) FIGURE 5 Pharmacological profile of PAR receptor binding to platelet membranes. Figure 5A depicts the concentration‐dependent inhibition by unlabeled PAF receptor antagonists of different affinities for [^3H]‐PAF binding to rabbit platelet membranes in vitro. Figure 5B illustrates the correlation between the pharmacological profile of PAF receptor antagonists competing for [^3H]‐PAF binding to rabbit and human platelet membranes.

PAF receptor [3] = biological target: T1, PAF receptor (Homo sapiens, UniProt P25105); assay: [3H]‐PAF binding to human platelet membranes
T1 construct: from tissue; host or cells: human platelet membranes
Text: FIGURE 5 Pharmacological profile of PAR receptor binding to platelet membranes.

naïve mice = test system: naïve mice; set-up: method as in PMID 15326102, PMID 20961214, PMID 24754407, PMID 2891830, PMID 8529415; conditions: cited from earlier work
rod outer segments = test system: rod outer segments; set-up: method as in PMID 1427144; conditions: lithium‐ and light‐induced retinal degenerations animal models; cited from earlier work
animals = test system: animals; set-up: method as in PMID 7859817; conditions: intravitreally injected PAF, pretreatment; cited from earlier work
patients [4] = test system: patients; set-up: method as in PMID 31816871; conditions: cited from earlier work
PAF receptor [5] = biological target: T1, PAF receptor; assay: [3H]‐WEB‐2086 binding to human platelet membranes; conditions: read-out: [3H]‐WEB‐2086 binding inhibition constant (Ki, nM; Mean ± SEM)
[6] = test system: human conjunctival epithelial cells (HCECs); set-up: method as in PMID 19513187; conditions: cited from earlier work
[7] = test system: human conjunctival epithelial cells (HCECs); set-up: method as in PMID 19513187; conditions: cited from earlier work; remark: listed apart in the source
[8] = test system: retinal capillary endothelial cells; set-up: method as in PMID 12356842; conditions: rat pups exposed to high levels of oxygen (model of ROP), prior treatment; cited from earlier work
[9] = test system: human conjunctival epithelial cells (HCECs); set-up: method as in PMID 9261768; conditions: cited from earlier work; for EC50: read-out: EC50 for increase of [3H]‐IPs
photoreceptors = test system: photoreceptors; set-up: method as in PMID 15979612; conditions: retinal ischemia / oxidative stress; cited from earlier work
human chronic diseases = test system: human chronic diseases; set-up: method as in PMID 31816871; conditions: ulcerative colitis, myocardiac infarction, organ failure associated with pancreatitis, cognitive decline after bypass surgery, psoriasis; cited from earlier work
HCEPI/CEPI‐17‐CL4 cells = test system: HCEPI/CEPI‐17‐CL4 cells; set-up: method as in PMID 9856766, PMID 9559896, PMID 9863665, PMID 10235542, PMID 20187806; conditions: cited from earlier work
HIS and PAF receptors = test system: HIS and PAF receptors; set-up: method as in PMID 1793070; conditions: cited from earlier work
[10] = test system: patients suffering from rhinitis; set-up: method as in PMID 23459334, PMID 31470575; conditions: oral, 4‐week period of dosing; cited from earlier work
[11] = set-up: method as in PMID 31816871; conditions: cited from earlier work
asthma patients = test system: asthma patients; set-up: method as in PMID 31816871; conditions: cited from earlier work
[12] = set-up: method as in PMID 31816871; conditions: cited from earlier work; remark: listed apart in the source
[13] = test system: laser‐induced choroidal neovascularization (CNV) in mice; set-up: method as in PMID 23826375; conditions: cited from earlier work
rats = test system: rats; set-up: method as in PMID 9845270; conditions: streptozotocin‐induced diabetes in rats; cited from earlier work
[14] = set-up: method as in PMID 31816871; conditions: cited from earlier work; remark: listed apart in the source
patients [15] = test system: patients; set-up: method as in PMID 31816871; conditions: cited from earlier work; remark: listed apart in the source
[16] = test system: PAF receptors on rabbit and human platelets; assay: PAF receptor binding on platelets; conditions: Figure 5
Text: as §1

[17] = biological target: PAF receptors in the bovine and rabbit cornea; set-up: method as in PMID 10067986; conditions: cited from earlier work
[18] = human platelet membranes, read-out: [3H]‐PAF receptor binding inhibition constant (Ki, nM; Mean ± SEM)

Sequence of PAF receptor (Oryctolagus cuniculus, UniProt G1TEI7) (G1TEI7 1-342): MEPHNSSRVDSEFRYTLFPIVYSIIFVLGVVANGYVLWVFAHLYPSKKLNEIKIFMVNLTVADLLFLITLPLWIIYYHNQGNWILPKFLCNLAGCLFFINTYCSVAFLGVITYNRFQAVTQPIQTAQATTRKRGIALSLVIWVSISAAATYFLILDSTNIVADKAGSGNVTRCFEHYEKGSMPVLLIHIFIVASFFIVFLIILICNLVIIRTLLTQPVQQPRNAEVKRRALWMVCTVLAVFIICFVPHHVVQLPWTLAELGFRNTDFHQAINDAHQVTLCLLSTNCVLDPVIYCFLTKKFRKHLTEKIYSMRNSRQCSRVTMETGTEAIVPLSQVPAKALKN
T1 sequence (P25105 whole entry): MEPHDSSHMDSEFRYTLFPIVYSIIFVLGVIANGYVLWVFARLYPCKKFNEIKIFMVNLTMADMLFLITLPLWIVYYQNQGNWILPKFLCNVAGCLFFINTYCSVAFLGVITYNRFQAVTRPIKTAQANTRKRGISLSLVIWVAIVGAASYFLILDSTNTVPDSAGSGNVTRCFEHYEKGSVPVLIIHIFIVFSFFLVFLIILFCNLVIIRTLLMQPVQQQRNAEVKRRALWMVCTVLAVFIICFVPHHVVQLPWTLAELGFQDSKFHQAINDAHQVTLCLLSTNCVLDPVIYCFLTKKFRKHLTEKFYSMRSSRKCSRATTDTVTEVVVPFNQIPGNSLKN

C#Cc1cccc2c1c(C(=O)c1ccc(Cn3c(C)nc4cnccc43)c(F)c1)cn2C(=O)N(C)C [ABT‐491]
Pain induced by ATP‐triggered PAF release [1]: blocked

CN(C)C(=O)n1cc(C(=O)c2ccn3c2CS[C@@H]3c2cccnc2)c2ccc(-c3ccc(F)cc3)cc21 [A‐85783]
Ki (PAF receptor [2]): 6.9 ± 1 nM

C#Cc1cccc2c1c(C(=O)c1ccc(Cn3c(C)nc4cnccc43)c(F)c1)cn2C(=O)N(C)C [A‐137491]
Ki (PAF receptor [3]): 3.9 ± 0.5 nM

COc1ccc(NC(=S)N2CCc3c(sc4c3C(c3ccccc3Cl)=NCc3nnc(C)n3-4)C2)cc1 [BN‐50730 (Rocipafant) LAU‐8080, Rocipafant]
Ki (PAF receptor [2]): 44.8 ± 7.2 nM

COc1ccc(SCC(=S)N2CCc3c(sc4c3C(c3ccccc3Cl)=NCc3nnc(C)n3-4)C2)cc1OC [BN‐50739]
Ki (PAF receptor [2]): 28.6 ± 8.4 nM | Ki (PAF receptor [3]; [18]): 53.4 ± 1.9 nM

CC1C(=O)OC2C(O)C34C5CC(C(C)(C)C)C36C(OC(=O)C6O)OC4(C(=O)O5)C12O (stereo not drawn) [BN‐52021(Ginkolide B), Ginkgolide B]
PAF‐induced ocular surface neovascularization (naïve mice): inhibited | Damage to rod outer segments (rod outer segments): effectively suppressed | PAF‐induced disruption of choroidal endothelial cell layer and polymorphonuclear leukocyte infiltration (animals): mostly abolished | PAF levels in patients (patients [4]): reduction

CCCCCCCCCCCCCCCCCCNC(=O)OCC(COP(=O)([O-])OCC[n+]1ccsc1)OC (stereo not drawn) [CV‐3988]
Ki (PAF receptor [2]): 2900 ± 240 nM | Ki (PAF receptor [3]; [18]): 3090 ± 889 nM | Ki (PAF receptor [5]): 3780 ± 759 nM | Antagonism of PAF‐induced [Ca2+]i mobilization [6]: antagonized | Effect on PAF‐induced synthesis and secretion of IL‐6, IL‐8 and GM‐CSF [7]: curtailed | PAF‐induced ocular surface neovascularization (naïve mice): inhibited | Loss of retinal capillary endothelial cells [8]: reduced

Cc1nnc2n1-c1sc3c(c1C(c1ccccc1Cl)=N[C@H]2C)CCN(C(=O)C1CC1)C3 [E‐6123]
Ki (PAF receptor [2]): 9.3 ± 0.3 nM

NCCc1c[nH]cn1 [HIS, histamine]
EC50 [9]: 3100 nM

CC1=C(C(=O)OCCOc2ccc(Cl)c(Cl)c2)C(C)C(C(=O)OC(CN2CCOCC2)CN2CCOCC2)=C(C)N1 (stereo not drawn) [LAU0901]
Protection of photoreceptors and their terminals (photoreceptors): efficaciously protected

CCCCC/C=C\C\C=C/C=C/C=C/[C@@H](SC[C@H](NC(=O)CC[C@H](N)C(=O)O)C(=O)NCC(=O)O)[C@@H](O)CCCC(=O)O [LTC4]
EC50 [9]: 300 nM

CCOC(=O)[C@H](CC(C)C)N(C)S(=O)(=O)c1ccc(Cn2c(C)nc3cnccc32)cc1 [Lexipafant]
Efficacy in multiple human chronic diseases (human chronic diseases): lack of efficacy

CCOC(=O)C1=C(c2ccc(-n3c(C)nc4cnccc43)cc2)NC(C)=C(C(=O)Nc2ccccn2)[C@H]1c1ccccc1Cl [Modipafant]
Efficacy in multiple human chronic diseases (human chronic diseases): lack of efficacy

CCOC[C@H](CC(C)C)N(C)S(=O)(=O)c1ccc(Cn2c(C)nc3cnccc32)cc1 [Nupafant]
Ki (PAF receptor [2]): 1.7 ± 0.6 nM

CCCCCCCCOc1ccccc1C(=O)Nc1ccc(C(=O)OCC[N+](C)(CC)CC)cc1 [Octylonium]
Ki (PAF receptor [3]; [18]): 4335 ± 17.8 nM

COC(=O)C1=C(C)NC(C)=C(C(=O)OCCSc2ccccc2)C1C (stereo not drawn) [PCA‐4248]
Ki (PAF receptor [3]; [18]): 634 nM | Antagonism of PAF‐induced [Ca2+]i mobilization [6]: antagonized | Effect on PAF‐induced synthesis and secretion of IL‐6, IL‐8 and GM‐CSF [7]: curtailed | Effect on PAF‐induced IPs production (HCEPI/CEPI‐17‐CL4 cells): blocked

CCCCC[C@H](O)/C=C/[C@@H]1[C@@H](C/C=C\CCCC(=O)O)[C@@H](O)C[C@H]1O [PGF2α]
Stimulation of [3H]‐IPs (in words) [9]: inactive

CCCCCCCCCCCCCCCCCCNC(=O)OC[C@@H](COCCCC[n+]1ccsc1)OC(=O)OC [RO‐19‐3704]
Ki (PAF receptor [2]): 201 ± 22.5 nM

Cc1cncc(CN2CCC(=C3c4ccc(Cl)cc4CCc4cccnc43)CC2)c1 [SCH‐37370 (Rupatadine), Rupatadine]
Affinities and potencies at both HIS and PAF receptors (in words) (HIS and PAF receptors): micromolar | Nasal discharge, sneezing and nasal itching [10]: significantly reduced | Ocular itching [10]: significantly reduced | Effects in chronic idiopathic urticaria and allergic rhino‐conjunctivitis [11]: beneficial effects

C[C@@H]1S[C@H](c2cccnc2)N(C)C1=O [SM‐10661]
Ki (PAF receptor [2]): 7490 ± 875 nM | Ki (PAF receptor [3]; [18]): 22800 nM | Ki (PAF receptor [5]): 9850 ± 1350 nM

CC(C)c1cc(C(C)C)c(-c2csc(N(CCN(C)C)Cc3cccnc3)n2)c(C(C)C)c1 [SR27417A]
Efficacy in asthma patients (asthma patients): modest efficacy | Efficacy in multiple human chronic diseases (human chronic diseases): lack of efficacy

CCC[n+]1cc(Br)cc(C(=O)N(CCC(=O)NCCOC(=O)N2CCc3ccccc3C2)c2ccccc2)c1.O=[N+]([O-])[O-] [TCV‐309]
Ki (PAF receptor [2]): 5.5 ± 0.2 nM | Ki (PAF receptor [3]; [18]): 9.4 ± 3.1 nM | Organ dysfunction and morbidity linked to septic shock [12]: reduction

Cc1nnc2n1-c1sc(CCC(=O)N3CCOCC3)cc1C(c1ccccc1Cl)=NC2 [WEB‐2086]
Choroidal neovascularization and subretinal fibrosis induced by PAF [13]: inhibited | Fluoresceine leakage (retinal vascular leakage) after laser‐induced CNV ([13]; mice, prior treatment, intraperitoneal and intravitreal administration): blockade | Retinal blood vessel density (rats): helped preserve | Erythema induced by UV‐light [14]: reduction

CC(C)(CCN1CCN(C(=O)C2CSC(c3cccnc3)N2)CC1)c1ccccc1 (stereo not drawn) [YM‐264]
Ki (PAF receptor [2]): 5.1 ± 0.6 nM | Ki (PAF receptor [3]; [18]): 7.3 ± 1.8 nM

Cc1nnc2n1-c1sc(CCc3ccc(CC(C)C)cc3)cc1C(c1ccccc1Cl)=NC2C (stereo not drawn) [Y‐24180]
Bronchial hyperresponsiveness (patients [15]): improvement

Clc1ccc2c(c1)CCc1cccnc1C2=C1CCNCC1 [des‐loratadine]
Nasal discharge, sneezing and nasal itching [10]: significantly reduced | Ocular itching [10]: significantly reduced

Hexanolamine
Ki (PAF receptor [2]): 164 ± 15.4 nM

bradykinin (RPPGFSPFR; Bradykinin; UniProt P01042 381-389, looked up) [BK, mast cell mediator]
EC50 [9]: 0.83 nM

endothelin (CSCSSLMDKECVYFCHLDIIW; ends and bridges not checked; cysteine pairing not given here; UniProt P05305 53-73, looked up)
Stimulation of [3H]‐IPs (in words) [9]: inactive

platelet‐activating factor [PAF]
Ki (PAF receptor [2]): 3.7 ± 0.4 nM | Ki (PAF receptor [3]; [18]): 3.1 ± 0.6 nM | Ki (PAF receptor [5]): 26.5 ± 2 nM | Kd [16]: 0.5 nM | EC50 [9]: 4.5 nM | EC50 ([6]; read-out: EC50 for [Ca2+]i mobilization): 0.81 nM | Kd [17]: 0.8 to 4.3 nM

substance P (RPKPQQFFGLM; ends and bridges not checked; UniProt P20366 58-68, looked up)
Stimulation of [3H]‐IPs (in words) [9]: inactive

— PMC10084252, “PAF‐induced inflammatory and immuno‐allergic ophthalmic diseases and their mitigation with PAF receptor antagonists: Cell and nuclear effects” (Biofactors (Oxford, England), 2022)
